Among the data in the NIST ThermoML archive (doi:10.1021/acs.jced.6b00428) are refractive index values, retold here.

± gives the expanded uncertainty stated by the source.

This data set is described as follows: refractive index (Na D-line) (dimensionless). Conditions: 101.33 kPa, Liquid, Standard Abbe refractometry.

For the compound `CCO` [ethanol], for the setting “298.15 K”, the refractive index is given as 1.3616 ± 0.0024.

In the case of `CC(=O)OC(C)C` [1-methylethyl ethanoate], under “293.15 K”, the refractive index is on record as 1.3771 ± 0.0024.

In the case of `O` [water], the refractive index (298.15 K) stood at 1.3328 ± 0.0024.
